Assay results: ChEMBL document CHEMBL1156367, “Makaluvamine P, a new cytotoxic pyrroloiminoquinone from Zyzzya cf. fuliginosa” (J Nat Prod, 2001)

Experiments:
[1] = test system: KB; test: Cytotoxicity against human KB cells at 3.2 ug/mL after 48 hrs by XTT assay; format: functional
[2] = molecular target: Xanthine dehydrogenase/oxidase (Homo sapiens, UniProt P47989); test: Inhibition of xanthine oxidase by spectrophotometry
[3] = ABTS radical scavenging activity assessed as trolox equivalents by TEAC assay; format: physicochemical

Sequence of Xanthine dehydrogenase/oxidase (P47989 whole entry): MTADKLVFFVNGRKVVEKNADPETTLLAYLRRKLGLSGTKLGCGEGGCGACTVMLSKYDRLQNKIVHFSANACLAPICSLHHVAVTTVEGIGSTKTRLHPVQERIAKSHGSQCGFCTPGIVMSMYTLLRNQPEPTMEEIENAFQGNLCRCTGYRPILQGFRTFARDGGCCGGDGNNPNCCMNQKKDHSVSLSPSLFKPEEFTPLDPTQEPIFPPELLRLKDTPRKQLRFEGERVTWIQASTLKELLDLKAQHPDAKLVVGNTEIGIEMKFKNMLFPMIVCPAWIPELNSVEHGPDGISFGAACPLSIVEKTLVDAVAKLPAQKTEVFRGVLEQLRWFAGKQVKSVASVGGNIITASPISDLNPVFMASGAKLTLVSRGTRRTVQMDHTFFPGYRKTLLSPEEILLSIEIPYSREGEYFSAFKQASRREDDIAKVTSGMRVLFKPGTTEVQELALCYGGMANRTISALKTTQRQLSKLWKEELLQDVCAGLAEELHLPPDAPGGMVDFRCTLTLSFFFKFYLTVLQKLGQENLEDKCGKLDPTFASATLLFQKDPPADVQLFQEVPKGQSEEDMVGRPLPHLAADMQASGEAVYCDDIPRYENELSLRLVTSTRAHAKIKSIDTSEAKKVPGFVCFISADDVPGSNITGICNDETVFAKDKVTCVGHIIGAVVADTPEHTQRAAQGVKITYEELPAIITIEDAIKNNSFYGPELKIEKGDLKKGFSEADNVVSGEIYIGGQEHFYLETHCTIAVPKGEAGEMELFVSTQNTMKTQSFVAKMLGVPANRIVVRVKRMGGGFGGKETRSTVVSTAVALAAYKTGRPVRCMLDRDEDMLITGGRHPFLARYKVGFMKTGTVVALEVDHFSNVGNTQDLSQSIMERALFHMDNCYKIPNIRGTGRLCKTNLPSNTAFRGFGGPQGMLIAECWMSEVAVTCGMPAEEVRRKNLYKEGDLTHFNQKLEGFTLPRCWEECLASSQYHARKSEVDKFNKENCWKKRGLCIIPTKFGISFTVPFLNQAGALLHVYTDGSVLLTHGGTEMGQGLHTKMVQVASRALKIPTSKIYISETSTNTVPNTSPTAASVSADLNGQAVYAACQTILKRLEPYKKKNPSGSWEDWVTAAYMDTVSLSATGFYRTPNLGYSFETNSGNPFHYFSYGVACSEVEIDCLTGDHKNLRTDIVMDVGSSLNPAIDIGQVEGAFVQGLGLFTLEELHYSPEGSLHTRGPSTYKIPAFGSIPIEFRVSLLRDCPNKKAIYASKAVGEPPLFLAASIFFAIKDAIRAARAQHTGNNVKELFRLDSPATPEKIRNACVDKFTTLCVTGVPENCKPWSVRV

- IC50 [2]: 16.5 µM
- Activity [3]: 0.341
SMILES: Cn1cc2c3c1C(=O)C(NCCc1ccc(O)cc1)=CC3=[N+](C)CC2.[Cl-] [MAKALUVAMINE P]
- inhibition at 3.2 µg/mL [1]: 64%
